# Assay results published in patent publication US20260232767A1, “INTERLEUKIN-23 RECEPTOR ANTAGONIST PEPTIDES FOR USE IN THE TREATMENT OF PSORIASIS” (Janssen Pharmaceutica NV, priority 2023, published 2026).
# Tested on: subjects with moderate-to-severe plaque psoriasis
# Assay: PASI response, Example 1 16-week dose-ranging study
# Type: in vivo, human
# Description: The Psoriasis Area and Severity Index (PASI) is a system used for assessing and grading the severity of psoriatic lesions and their response to therapy. In the PASI system, the body is divided into four regions: the head, trunk, upper extremities, and lower extremities. Each of these areas is assessed and scored separately for erythema, induration, and scaling, which are each rated on a scale of 0 to 4 and extent of involvement on a scale of 0 to 6. The PASI produces a numeric score (a “PASI score”) that can range from 0 to 72. A higher score indicates more severe disease.
# This was a randomized, double-blind, placebo-controlled, dose-ranging, parallel group, multicenter, interventional study in subjects with moderate-to-severe plaque psoriasis. A target of 240 subjects were enrolled in this study with 40 subjects planned per intervention group.
# Clinician-reported outcomes including Psoriasis Area and Severity Index (PASI), Body Surface Area (BSA), Investigator's Global Assessment (IGA), Nail Psoriasis Area and Severity Index (NAPSI), Fingernail Physician's Global Assessment (f-PGA), Static Physician's Global Assessment of Genitalia (s-PGA-G), Physician's Global Assessment of Hands and/or Feet (hf-PGA), and Scalp Specific Investigator Global Assessment (ss-IGA) were obtained at Week 0, 8, and 16. PASI and IGA were also obtained at Weeks 1, 2, 4, and 12, and at Week 20, four weeks after the administration of the tablets has stopped.
# The primary efficacy endpoint was the proportion of participants achieving a PASI 75 response at Week 16, defined as at least a 75% reduction from baseline in PASI total score.
# For the primary analysis, composite strategy (non-responder imputation) was applied to address intercurrent event #1 (Discontinuation of study intervention due to lack of efficacy or due to an AE of worsening of psoriasis) and #2 (initiation of a protocol-prohibited medication or therapy that could improve psoriasis); and treatment policy strategy (observed data) was applied to intercurrent event #3 (Discontinuation of study intervention due to other reasons). Participants with missing data after application of ICEs are also considered as non-responders.
# In addition to the response analysis, pairwise comparisons of each treatment group versus the placebo group were performed for the primary endpoint of PASI 75 at Week 16. Pairwise comparisons were not adjusted for multiplicity. The Cochran-Mantel-Haenszel chi-square statistic stratified by baseline weight category (≤90 kg, >90 kg) at a 2-sided significance level of 0.05 was used (Table 2).
# [1] = 100 mg BID, Week 16, trough plasma conc Q1 to <Q2
# [2] = 100 mg BID, Week 16, trough plasma conc Q2 to <Q3
# [3] = 100 mg BID, Week 16, trough plasma conc ≥Q3
# [4] = 100 mg QD, Week 16, peak plasma conc. <Q1, N=2
# [5] = 100 mg QD, Week 16, peak plasma conc. Q1 to <Q2, N=2
# [6] = 100 mg QD, Week 16, peak plasma conc. Q2 to <Q3, N=2
# [7] = 100 mg QD, Week 16, peak plasma conc. ≥Q3, N=2
# [8] = 100 mg QD, Week 16, trough plasma conc <Q1
# [9] = 100 mg QD, Week 16, trough plasma conc Q1 to <Q2
# [10] = 100 mg QD, Week 16, trough plasma conc Q2 to <Q3
# [11] = 100 mg QD, Week 16, trough plasma conc ≥Q3
# [12] = Combined doses, Week 16, peak plasma conc. <Q1, N=10
# [13] = Combined doses, Week 16, peak plasma conc. Q1 to <Q2, N=11
# [14] = Combined doses, Week 16, peak plasma conc. Q2 to <Q3, N=10
# [15] = Combined doses, Week 16, peak plasma conc. ≥Q3, N=11
# [16] = Combined doses, Week 16, trough plasma conc <Q1
# [17] = Combined doses, Week 16, trough plasma conc Q1 to <Q2
structure (smiles),measurement,setting,value
"CC(=O)NCCCC[C@@H]1NC(=O)[C@H](Cc2c[nH]c3c(C)cccc23)NC(=O)[C@H]([C@@H](C)O)NC(=O)[C@H](CC(N)=O)NC(=O)[C@@H](NC(C)=O)C(C)(C)SSC(C)(C)[C@@H](C(=O)N[C@@H](Cc2ccc(OCCN)cc2)C(=O)N[C@@H](Cc2ccc3ccccc3c2)C(=O)NC2(C(=O)N[C@@H](CCC(=O)O)C(=O)N[C@@H](CC(N)=O)C(=O)N[C@@H](Cc3cccnc3)C(=O)N(C)CC(N)=O)CCOCC2)NC1=O [IL-23 receptor antagonist peptide, Ac-[Pen]*-N-T-[W(7-Me)]-[Lys(Ac)]-[Pen]*-Phe[4-(2-aminoethoxy)]-[2-Nal]-[THP]-E-N-[3-Pal]-Sarc-NH2 (*[Pen]-[Pen]* formdisulfidebond)]","PASI 100% Improvement, subjects",[1],2 (40.0%)
same,"PASI ≥75% Improvement, subjects",[1],4 (80.0%)
same,"PASI ≥90% Improvement, subjects",[1],3 (60.0%)
same,"PASI 100% Improvement, subjects",[2],2 (40.0%)
same,"PASI ≥75% Improvement, subjects",[2],5 (100.0%)
same,"PASI ≥90% Improvement, subjects",[2],3 (60.0%)
same,"PASI 100% Improvement, subjects",[3],2 (40.0%)
same,"PASI ≥75% Improvement, subjects",[3],4 (80.0%)
same,"PASI ≥90% Improvement, subjects",[3],4 (80.0%)
same,Subjects achieving PASI 75,"100 mg QD, Week 4",16.3%
same,PASI 75 treatment difference vs placebo,"100 mg QD, Week 16",55.8%
same,PASI 90 treatment difference vs placebo,"100 mg QD, Week 16","44.2% (28.6%,"
same,PASI 100 treatment difference vs placebo,"100 mg QD, Week 16","23.3% (10.7%,"
same,Subjects achieving PASI 90,"100 mg QD, Week 16",20 (46.5%)
same,Subjects achieving PASI 100,"100 mg QD, Week 16",10 (23.3%)
same,"PASI 75, %","100 mg QD, Week 16, N=43",65.1%
same,"PASI 90, %","100 mg QD, Week 16, N=43",46.5%
same,"PASI 100, %","100 mg QD, Week 16, N=43",23.3%
same,"PASI 100% Improvement, n subjects",[4],0
same,"PASI ≥75% Improvement, % subjects",[4],(100.0%)
same,"PASI ≥75% Improvement, n subjects",[4],2
same,"PASI ≥90% Improvement, % subjects",[4],(50.0%)
same,"PASI ≥90% Improvement, n subjects",[4],1
same,"PASI 100% Improvement, % subjects",[5],(50.0%)
same,"PASI 100% Improvement, n subjects",[5],1
same,"PASI ≥75% Improvement, % subjects",[5],(100.0%)
same,"PASI ≥75% Improvement, n subjects",[5],2
same,"PASI ≥90% Improvement, % subjects",[5],(50.0%)
same,"PASI ≥90% Improvement, n subjects",[5],1
same,"PASI 100% Improvement, n subjects",[6],0
same,"PASI ≥75% Improvement, % subjects",[6],(50.0%)
same,"PASI ≥75% Improvement, n subjects",[6],1
same,"PASI ≥90% Improvement, % subjects",[6],(50.0%)
same,"PASI ≥90% Improvement, n subjects",[6],1
same,"PASI 100% Improvement, n subjects",[7],0
same,"PASI ≥75% Improvement, n subjects",[7],1
same,"PASI ≥90% Improvement, % subjects",[7],(50.0%)
same,"PASI ≥90% Improvement, n subjects",[7],1
same,"PASI 100% Improvement, subjects",[8],2 (40.0%)
same,"PASI ≥75% Improvement, subjects",[8],3 (60.0%)
same,"PASI ≥90% Improvement, subjects",[8],3 (60.0%)
same,"PASI 100% Improvement, subjects",[9],0
same,"PASI ≥75% Improvement, subjects",[9],3 (60.0%)
same,"PASI ≥90% Improvement, subjects",[9],3 (60.0%)
same,"PASI 100% Improvement, subjects",[10],1 (20.0%)
same,"PASI ≥75% Improvement, subjects",[10],3 (60.0%)
same,"PASI ≥90% Improvement, subjects",[10],2 (40.0%)
same,"PASI 100% Improvement, subjects",[11],1 (20.0%)
same,"PASI ≥75% Improvement, subjects",[11],3 (60.0%)
same,"PASI ≥90% Improvement, subjects",[11],2 (40.0%)
same,"PASI 100% Improvement, n subjects",[12],0
same,"PASI ≥75% Improvement, n subjects",[12],4
same,"PASI ≥90% Improvement, % subjects",[12],(30.0%)
same,"PASI ≥90% Improvement, n subjects",[12],3
same,"PASI 100% Improvement, % subjects",[13],(18.2%)
same,"PASI 100% Improvement, n subjects",[13],2
same,"PASI ≥75% Improvement, n subjects",[13],10
same,"PASI ≥90% Improvement, % subjects",[13],(63.6%)
same,"PASI ≥90% Improvement, n subjects",[13],7
same,"PASI 100% Improvement, % subjects",[14],(10.0%)
same,"PASI 100% Improvement, n subjects",[14],1
same,"PASI ≥75% Improvement, n subjects",[14],7
same,"PASI ≥90% Improvement, % subjects",[14],(60.0%)
same,"PASI ≥90% Improvement, n subjects",[14],6
same,"PASI 100% Improvement, % subjects",[15],(36.4%)
same,"PASI 100% Improvement, n subjects",[15],4
same,"PASI ≥75% Improvement, n subjects",[15],8
same,"PASI ≥90% Improvement, % subjects",[15],(63.6%)
same,"PASI ≥90% Improvement, n subjects",[15],7
same,"PASI 100% Improvement, subjects",[16],7 (26.9%)
same,"PASI ≥75% Improvement, subjects",[16],13 (50.0%)
same,"PASI ≥90% Improvement, subjects",[16],11 (42.3%)
same,"PASI 100% Improvement, subjects",[17],4 (15.4%)
same,"PASI ≥75% Improvement, subjects",[17],12 (46.2%)
same,"PASI ≥90% Improvement, subjects",[17],7 (26.9%)
